From a melting point compilation (Tetko et al.; mined from patent text by program, amines drawn as free bases though some values may be those of a salt)

Compound | melting point [°C]
CC(C)(C)OC(=O)N1CCC(C(=O)c2nc3ccccc3s2)CC1 | 94 to 95
CC1(C)C(C(=O)NO)N(S(=O)(=O)c2ccc(-c3ccc(Br)cc3)cc2)CCS1(=O)=O (stereo not given) | 190 to 191
COC(=O)C1C=CCn2c(=O)[nH]c(=O)n21 (stereo not given) | 210 to 213
O=C(CCl)Nc1cccc2c1C(=O)c1c(NC(=O)CCl)cccc1C2=O | 280 to 281
O=[N+]([O-])c1ccc2c(c1)S(=O)(=O)c1cc(F)ccc1-2 | 275 to 279
CN1CC(c2ccc(Cc3ccc(F)cc3)cn2)=C(O)C1=O | 204 to 206
CCCOc1ccc(S(=O)(=O)N2CCN(C)CC2)cc1-c1cc2c(=O)n(C)c(=O)n(CCC)c2[nH]1 | 240
Cc1ccc2nc(NC3=NCCN3)[nH]c2c1 | 264 to 266
Cn1c(=O)oc2cc(CCN3CCN(c4ccc(F)cc4)CC3)ccc21 | 161 to 164
COc1ccc(CNc2nc(N3CCC[C@H]3CO)ncc2C(=O)Nc2cncnc2)cc1Cl | 192 to 195
CCOC(=O)c1cc(-n2c(=O)c3c(n(COC)c2=O)CCC3)ccc1Cl | 103 to 106
CCCC(=O)c1cnc2ccsc2c1Cl | 78 to 80
CCOc1cc(-c2cc(C(F)(F)F)n3ncc(-c4cc(C)nc(C)c4)c3n2)ccc1C(F)(F)F | 257
COc1ccc(C(=O)O)c(C)c1C | 214
N#Cc1cc(-c2ccc(Cl)cc2)nc(Oc2ccc(F)c(C(F)(F)F)c2)n1 | 131 to 132
CCn1c(C(F)(F)F)n[nH]c1=O | 54
COC(=O)C(c1ccc(Cl)cc1)C(OC)OC (stereo not given) | 61 to 62
COc1cc(F)c(C2NCCc3ccsc32)cc1OC (stereo not given) | 108 to 111
OCc1cn2c(n1)sc1ccccc12 | 131
CNS(=O)(=O)c1ccc2c(c1)S(=O)(=O)N=C1CCCN12 | 244 to 247
CSc1nc(-c2cc(C(=O)N(C)C)ccc2C)c2c(n1)N(c1c(F)cccc1F)C(=O)NC2 | 144 to 147
NC(=NCC(F)(F)F)Nc1ccnc(SCCCC(=O)O)n1 | 234 to 236
Cc1nc(SCC(=O)c2cc(-c3ccc(C(F)(F)F)cc3)oc2C)sc1CC(=O)O | 140 to 143
Nc1cc(NS(=O)(=O)CCl)c(Cl)cc1F | 104 to 106
O[C@@H]1CCCN(C[C@@H]2CCN(CCc3c[nH]c4ccc(-n5cncn5)cc34)C2)[C@@H]1c1ccccc1 | 192 to 193

Compound | melting point [°C]
CCCCCS(=O)(=O)NC(=O)c1ccc2nc(C)n(Cc3ccc(N(C)C(=O)OCC)cc3Cl)c2n1 | 149 to 150
Cc1cc(C(=O)O)c(Cl)c([N+](=O)[O-])c1C | 160 to 163
Cc1ccc2oc(OCC(=O)N(c3ccccc3)C(C)C)nc2c1 | 108
CCOC(=O)c1nc2c(=O)[nH]c3ccc(-n4ccnc4)cc3n2c1C | > 250
NC(=O)c1ccnn1-c1ccc(Oc2ccccc2)cc1 | 142 to 144
CCOC(=O)/C(=N\O[C@@H]1CCCC[C@@H]1C)c1csc(N)n1 (relative stereo) | 123 to 126
CCOC(=O)C(C)Oc1ncn(-c2ccc(Cl)cc2)n1 (stereo not given) | 62 to 64
O=C(O)C(=O)Nc1ccc2c(=O)c3c(oc2c1)C(=Cc1ccc2c(c1)OCO2)CC3 | 300 to 305
O=C(Cc1cccc(OCCCN(Cc2cccc(C(F)(F)F)c2Cl)CC(c2ccccc2)c2ccccc2)c1)NS(=O)(=O)c1ccccc1 | 110
CCOC(=O)c1c(C)cc2c(=O)n(-c3ccccc3Cl)cnc2c1C | 151 to 152
COc1cc2c(cc1OC)C(CCCl)OCC2 (stereo not given) | 161 to 163
O=C1NC(=O)c2c(Cl)cccc21 | 236 to 238
COC1(c2cc(F)cc(Sc3ccc(C(C)ONC(N)=O)cc3)c2)CCOCC1 (stereo not given) | 84 to 85
Nc1cnc(-c2cc(Cl)cc(Cl)c2Cl)c(NC(=O)C2CC2)n1 | 188 to 190
Cn1c(-c2ccc(OCC3CO3)cc2)nnc1C(F)(F)F (stereo not given) | 104 to 106
COc1ccccc1-c1nn(C(C)(C)C(=O)N(C)C)cc1C | 146 to 148
CO/C=C(/C(=O)OC)c1ccccc1COc1cccc(Br)n1 | 64 to 65
CCN1CNS(=O)(=O)c2cc(O)ccc21 | 214 to 218
CCCCCC(=O)NC[C@H](CC(C)C)NC(=O)[C@H]1O[C@@H]1C(=O)OCC | 120 to 121
Cc1c2c(cn1C)N(C)C(=O)C(OC(=O)c1ccccc1)N=C2c1ccccc1Cl (stereo not given) | 228 to 229
COc1cc2c(cc1OC)C(CCN1CCN(c3cccc(Cl)c3)CC1)OCCC2 (stereo not given) | 125 to 126
CCCn1cnc2c1c(=O)n(CCCCCCOc1ccc(Cl)cc1)c(=O)n2C | 50 to 51
CC(C)n1nc(CC(=O)c2cccc(F)c2)ccc1=O | 80 to 81
O=C(Nc1ccc(Br)cn1)Nc1cccc2c1C1CCCCN1C2=O (stereo not given) | 225
CN(C)C=C(C#N)C(=O)NCc1ccccc1 | 160 to 161

Compound | melting point [°C]
CCOC(=O)c1cn(C2CC2)c2c(CSCC)c(N3CCOCC3)c(F)cc2c1=O | 165 to 167
CC(C)(C)c1ccc(OCC(O)CN2CCC3(CC2)CSC2=C(O3)c3cc(Br)ccc3C(=O)C2=O)cc1 (stereo not given) | 150 to 152
CNC(=C[N+](=O)[O-])NCCSCc1ncccc1OC | 146 to 147
O=C(c1ccc(Cl)cc1)C(CC1OCCO1)Sc1ccccc1 (stereo not given) | 74 to 75
CC1CCCCN(C(=O)C2Cc3ccccc3N2c2ccc(=O)n(C)n2)C1 (stereo not given) | 109 to 112
COC(=O)C(O)C(CC1CCCCC1)NC(=O)C(Cc1c[nH]cn1)NC(=O)C(CC(=O)N1CCOCC1)Cc1cccc2ccccc12 (mixture of isomers) | 83 to 87
COc1ccc(CCNCC(O)c2ccccc2)cc1OC (stereo not given) | 92 to 93
Cn1cc(-c2nnc(-c3ccncc3)o2)c2ccccc21 | 212 to 214
CC(C(O)c1ccc(O[Si](C(C)C)(C(C)C)C(C)C)c(F)c1)N1CCC(O)(c2ccc(F)cc2)CC1 (stereo not given) | 159 to 160
c1c(N2CCCC2)nc(N2CCCC2)nc1N1CCN(CCN2CCNCC2)CC1 | 148 to 149
CCCC(=O)c1cnc2ccsc2c1Nc1ccccc1C(C)C | 118 to 120
CCCCCCCCOc1ccc(CP(=O)(OC)OC)c2c(CP(=O)(OC)OC)cccc12 | 51 to 52
N[C@@H](C/C(=C\C1CCCC1)C(=O)O)C(=O)O | 173 to 175
CCCCCCC(O)CCCCCCCCCCC(=O)OC (stereo not given) | 58
CCC1(O)c2cc3n(c(=O)c2COC1O)Cc1cc2ccccc2nc1-3 (stereo not given) | 280
CCc1cc(Cl)ccc1NC(C)=O | 117 to 122
COCOc1ccc(CCc2c(CC(N)=O)cc(OC)c(OC)c2OC)cc1OCc1ccccc1 | 73 to 74
COC(=O)[C@H]1[C@@H]2CC[C@@](NC(=O)OC(C)(C)C)(C(=O)OC)[C@@H]21 | 193 to 194
CCn1nc(OCCCc2ccc(OC(C)C)cc2OCc2ccc(Cl)cc2Cl)cc1CCC(=O)O | 110 to 111
COCCc1ccc(OCC(O)CN2CCC(N3CCCNC3=O)CC2)cc1 (stereo not given) | 113 to 115
CCOC(=O)C1N=C(c2ccccc2)c2cc(Cl)ccc2NC1=O (stereo not given) | 244
O=C(c1ccc(F)cc1)C1CCN(CCn2c(=O)c3ccccc3n(-c3ccccc3)c2=O)CC1 | 166
CCNc1cc(C(C)=O)ccn1 | 55 to 57
CCCc1cc(NC(=O)c2c(C)nn(C)c2C)c(C)c(-c2cc(CCC)c(C(C(F)(F)F)C(F)(F)F)cc2C)c1 | 128 to 131
O=S1(=O)NC(c2ccccc2)Nc2ccccc21 (stereo not given) | 126 to 128

Compound | melting point [°C]
OCCCC(=C(c1ccccc1)c1ccc(O)cc1)c1ccccc1 | 157 to 163
COC(=O)c1ccc(OCC2CO2)cc1O (stereo not given) | 53 to 55
CCc1nn(Cc2cccnn2)c2c(=O)[nH]c(-c3cc(S(C)(=O)=O)ccc3OCC(C)C)nc12 | 231 to 234
O=c1[nH]ncc2[nH]c(-c3ccc(OC(F)F)c(OC4CCC4)c3)cc12 | 289 to 291
CC(C)(C)c1ccc(S(=O)(=O)N2CCCC2=O)cc1 | 131 to 133
Cc1ccc2c(c1)N=Cc1cccc3c1N2CC3 | 77 to 78
O=C(O)C1=CC(CF)(CF)Oc2ccc(C(F)(F)C(F)(F)F)cc21 | 173 to 174
COc1ccccc1Oc1ccccc1N | 68 to 70
CC[C@@H](NC(=O)N1CC(=O)NCC(Cc2cc(Cl)ccc2OC)C1=O)C(=O)Nc1nnn[nH]1 (stereo not given in full) | 141 to 142
CCn1c2c(nc(-c3ccc(Cl)cc3)c1=O)CCCC2 | 110 to 113
Cc1c([N+](=O)[O-])oc2ccc(-c3ccc(CC(=O)O)cc3)cc12 | 229 to 230
COc1ccc(CNc2cc3c(Nc4ccc(OCc5ccccn5)c(Cl)c4)ncnc3cn2)cc1 | 182 to 184
Cc1nc(-n2cnn(CCNc3ccc(F)cc3)c2=O)sc1C(=O)NCc1cccnc1 | 163 to 164
CC(COc1ccc(Oc2ccccc2)cc1)=NO | 59 to 61
CC(Oc1ccc(N(C)c2cnc3cc(Cl)ccc3n2)cc1)C(=O)O (stereo not given) | 204
Cc1ccc(-c2nn(-c3cccc(C(=O)O)c3)c(N)c2C(N)=O)cc1 | 232 to 235
OC(c1ccc2c(c1)CCN2Cc1ccccc1)(C(F)(F)F)C(F)(F)F | 85 to 90
Cn1c(=O)c(-c2ccc(Cl)cc2Cl)cc2c3cc(C=O)ccc3n(C)c21 | 284
COCc1ccc(C(=O)O[C@H](CC(C)C)C(=O)O)o1 | 73 to 74
Nc1cc(C(c2c(F)ccc(F)c2F)S(=O)(=O)CCC(F)(F)F)c(Cl)cn1 (stereo not given) | 155 to 159
COc1ccc(Cl)cc1C(=O)NCCOc1ccc(CC2SC(=O)NC2=O)cc1 (stereo not given) | 66 to 67
COc1ccc2c(c1)C(c1ccncc1)=Nc1cc(Cl)ccc1O2 | 158 to 160
O=C(CC(=O)c1ccc(-c2ccccc2)cc1)Nc1ccc(OCCN2CCCC2)c(C(=O)O)c1 | 236 to 240
Cc1[nH]c(-c2nc3ccc(C(=O)c4ccccc4)cc3[nH]2)c(C)c1C(=O)O | > 300
CCCCNC(=O)Nc1ccc(N(C)C)cc1C(=O)NCC1CCN(C(c2ccccc2)c2ccccc2)CC1 | 201 to 203
